According to patent US12077503B2, “Substituted cyclic amides and their use as herbicides” (FMC CORPORATION, priority 2015, dated 2024):

Assays:
Format in all cases: in vivo
[1] = system: giant foxtail (Setaria faberi); assay: Test G Pre-Emergence Protocol; settings: evaluated after 13 days
Experimental: (§1) Seeds of corn (Zea mays), giant foxtail (Setaria faberi), barnyardgrass (Echinochloa crus-galli), ivy-leaved morning glory (Ipomoea hederacea), redroot pigweed (Amaranthus retroflexus) and velvetleaf (Abutilon theophrasti) were sown in standard soil in pots. After cultivation for one day under controlled conditions in a glasshouse (at 24/16° C., day/night; 14 hours light; 65% humidity), the plants were sprayed with an aqueous spray solution derived from the formulation of the technical active ingredient in acetone/water (50:50) solution containing 0.5% Tween 20 (polyoxyethylene sorbitan monolaurate, CAS RN 9005-64-5) to give a final dose of 15.625, 62.5 or 250 g/ha of test compound.
(§2) The test plants were then grown on under controlled conditions in a glasshouse (at 24/16° C., day/night; 14 hours light; 65% humidity) and watered twice daily. After 13 days the test was evaluated (100=total damage to plant; 0=no damage to plant). A dash (-) means no test result.

[2] = system: barnyardgrass (Echinochloa crus-galli); assay: Test G Pre-Emergence Protocol; settings: evaluated after 13 days
Experimental: as §1, §2

[3] = system: ivy-leaved morning glory (Ipomoea hederacea); assay: Test G Pre-Emergence Protocol; settings: evaluated after 13 days
Experimental: as §1, §2

[4] = system: corn (Zea mays); assay: Test G Pre-Emergence Protocol; settings: evaluated after 13 days
Experimental: as §1, §2

[5] = system: redroot pigweed (Amaranthus retroflexus); assay: Test G Pre-Emergence Protocol; settings: evaluated after 13 days
Experimental: as §1, §2

[6] = system: velvetleaf (Abutilon theophrasti); assay: Test G Pre-Emergence Protocol; settings: evaluated after 13 days
Experimental: as §1, §2

[7] = system: giant foxtail (Setaria faberi); assay: Test G Post-Emergence Protocol
Outline: (§3)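 Post-emergence herbicidal damage, scored visually 0–100 at 13 days. Application at 15.625, 62.5 or 250 g/ha onto 8-day-old plants grown under glasshouse control.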

[8] = system: barnyardgrass (Echinochloa crus-galli); assay: Test G Post-Emergence Protocol
Outline: as §3

[9] = system: ivy-leaved morning glory (Ipomoea hederacea); assay: Test G Post-Emergence Protocol
Outline: as §3

[10] = system: corn (Zea mays); assay: Test G Post-Emergence Protocol
Outline: as §3

[11] = system: velvetleaf (Abutilon theophrasti); assay: Test G Post-Emergence Protocol
Outline: as §3

[12] = 62.5 g ai/ha, 100=total damage to plant, 0=no damage to plant
[13] = 15.625 g ai/ha, evaluated after 13 days (100=total damage to plant; 0=no damage to plant)
[14] = 62.5 g ai/ha, evaluated after 13 days
[15] = 250 g ai/ha, evaluated after 13 days

Structure (SMILES): CN1C[C@H](c2cccc(C(F)(F)F)c2)[C@@H](C(=O)Nc2cccnc2F)C1=O [Compound 1397]
- Foxtail, Giant damage rating (100=total damage to plant; 0=no damage to plant) ([1]; 15.625 g ai/ha): 90
- Foxtail, Giant damage rating (100=total damage to plant; 0=no damage to plant) ([1]; 250 g ai/ha): 90
- pest or weed control at 62.5 g/ha ([1]; Setaria faberi, pre-emergence, 312 h, 62.5 g ai/ha, 100=total damage to plant, 0=no damage to plant, read-out: plant damage rating, Foxtail, Giant): 90%
- Barnyardgrass damage rating (100=total damage to plant; 0=no damage to plant) ([2]; 250 g ai/ha): 90
- pest or weed control at 15.625 g/ha ([2]; Echinochloa crus-galli, pre-emergence, 312 h, 15.625 g ai/ha, read-out: Barnyard grass damage rating (100=total damage to plant; 0=no damage to plant)): 90%
- pest or weed control at 62.5 g/ha ([2]; Echinochloa crus-galli, pre-emergence, 312 h, 62.5 g ai/ha, 100=total damage to plant, 0=no damage to plant, read-out: plant damage rating, Barnyardgrass): 90%
- Morningglory, Ivy-leaved damage rating (100=total damage to plant; 0=no damage to plant) ([3]; 250 g ai/ha): 80
- pest or weed control at 15.625 g/ha ([3]; Ipomoea, pre-emergence, 312 h, 15.625 g ai/ha, read-out: Morning-glory, Ivy-leaved damage rating (100=total damage to plant; 0=no damage to plant)): 60%
- pest or weed control at 62.5 g/ha ([3]; Ipomoea, pre-emergence, 312 h, 62.5 g ai/ha, 100=total damage to plant, 0=no damage to plant, read-out: plant damage rating, Morningglory, Ivy-leaved): 70%
- Corn damage rating (100=total damage to plant; 0=no damage to plant) ([4]; 15.625 g ai/ha): 80
- Corn damage rating (100=total damage to plant; 0=no damage to plant) ([4]; 250 g ai/ha): 90
- plant injury at 62.5 g/ha ([4]; Zea mays, pre-emergence, 312 h, 62.5 g ai/ha, 100=total damage to plant, 0=no damage to plant, read-out: plant damage rating, Corn): 80%
- Pigweed, Redroot damage rating (100=total damage to plant; 0=no damage to plant) ([5]; 15.625 g ai/ha): 0
- Pigweed, Redroot damage rating (100=total damage to plant; 0=no damage to plant) ([5]; 250 g ai/ha): 80
- pest or weed control at 62.5 g/ha ([5]; Amaranthus retroflexus, pre-emergence, 312 h, 62.5 g ai/ha, 100=total damage to plant, 0=no damage to plant, read-out: plant damage rating, Pigweed, Redroot): 20%
- Velvetleaf damage rating (100=total damage to plant; 0=no damage to plant) ([6]; 15.625 g ai/ha): 0
- Velvetleaf damage rating (100=total damage to plant; 0=no damage to plant) ([6]; 250 g ai/ha): 70
- pest or weed control at 62.5 g/ha ([6]; Abutilon theophrasti, pre-emergence, 312 h, 62.5 g ai/ha, 100=total damage to plant, 0=no damage to plant, read-out: plant damage rating, Velvetleaf): 10%
- pest or weed control at 15.625 g/ha ([7]; Setaria faberi, post-emergence, 312 h, 15.625 g ai/ha, evaluated after 13 days (100=total damage to plant; 0=no damage to plant), read-out: Foxtail, Giant damage rating): 80%
- pest or weed control at 62.5 g/ha ([7]; Setaria faberi, post-emergence, 312 h, 62.5 g ai/ha, evaluated after 13 days, read-out: Foxtail, Giant damage rating (100=total damage to plant; 0=no damage to plant)): 80%
- pest or weed control at 250 g/ha ([7]; Setaria faberi, post-emergence, 312 h, 250 g ai/ha, evaluated after 13 days, read-out: damage to plant, Foxtail, Giant (100=total damage to plant; 0=no damage to plant)): 80%
- pest or weed control at 15.625 g/ha ([8]; Echinochloa crus-galli, post-emergence, 312 h, 15.625 g ai/ha, evaluated after 13 days (100=total damage to plant; 0=no damage to plant), read-out: Barnyardgrass damage rating): 80%
- pest or weed control at 62.5 g/ha ([8]; Echinochloa crus-galli, post-emergence, 312 h, 62.5 g ai/ha, evaluated after 13 days, read-out: Barnyardgrass damage rating (100=total damage to plant; 0=no damage to plant)): 80%
- pest or weed control at 250 g/ha ([8]; Echinochloa crus-galli, post-emergence, 312 h, 250 g ai/ha, evaluated after 13 days, read-out: damage to plant, Barnyardgrass (100=total damage to plant; 0=no damage to plant)): 80%
- pest or weed control at 15.625 g/ha ([9]; Ipomoea, post-emergence, 312 h, 15.625 g ai/ha, evaluated after 13 days (100=total damage to plant; 0=no damage to plant), read-out: Morningglory, Ivy-leaved damage rating): 60%
- pest or weed control at 62.5 g/ha ([9]; Ipomoea, post-emergence, 312 h, 62.5 g ai/ha, evaluated after 13 days, read-out: Morningglory, Ivy-leaved damage rating (100=total damage to plant; 0=no damage to plant)): 60%
- pest or weed control at 250 g/ha ([9]; Ipomoea, post-emergence, 312 h, 250 g ai/ha, evaluated after 13 days, read-out: damage to plant, Morningglory, Ivy-leaved (100=total damage to plant; 0=no damage to plant)): 70%
- plant injury at 15.625 g/ha ([10]; Zea mays, post-emergence, 312 h, 15.625 g ai/ha, evaluated after 13 days (100=total damage to plant; 0=no damage to plant), read-out: Corn damage rating): 80%
- plant injury at 62.5 g/ha ([10]; Zea mays, post-emergence, 312 h, 62.5 g ai/ha, evaluated after 13 days, read-out: Corn damage rating (100=total damage to plant; 0=no damage to plant)): 80%
- plant injury at 250 g/ha ([10]; Zea mays, post-emergence, 312 h, 250 g ai/ha, evaluated after 13 days, read-out: damage to plant, Corn (100=total damage to plant; 0=no damage to plant)): 80%
- pest or weed control at 15.625 g/ha ([11]; Abutilon theophrasti, post-emergence, 312 h, 15.625 g ai/ha, evaluated after 13 days (100=total damage to plant; 0=no damage to plant), read-out: Velvetleaf damage rating): 0%
- pest or weed control at 62.5 g/ha ([11]; Abutilon theophrasti, post-emergence, 312 h, 62.5 g ai/ha, evaluated after 13 days, read-out: Velvetleaf damage rating (100=total damage to plant; 0=no damage to plant)): 10%
- pest or weed control at 250 g/ha ([11]; Abutilon theophrasti, post-emergence, 312 h, 250 g ai/ha, evaluated after 13 days, read-out: damage to plant, Velvetleaf (100=total damage to plant; 0=no damage to plant)): 40%

Structure (SMILES): CN1C[C@H](c2ccc(C(F)(F)F)cc2)[C@@H](C(=O)Nc2cccc(F)n2)C1=O [Compound 1400]
- Foxtail, Giant damage rating (100=total damage to plant; 0=no damage to plant) ([1]; 15.625 g ai/ha): 60
- plant damage rating, Foxtail, Giant [1, 12]: 90
- Foxtail, Giant damage rating (100=total damage to plant; 0=no damage to plant) ([1]; 250 g ai/ha): 90
- Barnyardgrass damage rating (100=total damage to plant; 0=no damage to plant) ([2]; 15.625 g ai/ha): 30
- plant damage rating, Barnyardgrass [2, 12]: 80
- Barnyardgrass damage rating (100=total damage to plant; 0=no damage to plant) ([2]; 250 g ai/ha): 80
- Morning-glory, Ivy-leaved damage rating (100=total damage to plant; 0=no damage to plant) ([3]; 15.625 g ai/ha): 0
- plant damage rating, Morningglory, Ivy-leaved [3, 12]: 0
- Corn damage rating (100=total damage to plant; 0=no damage to plant) ([4]; 15.625 g ai/ha): 20
- plant damage rating, Corn [4, 12]: 40
- Corn damage rating (100=total damage to plant; 0=no damage to plant) ([4]; 250 g ai/ha): 60
- Pigweed, Redroot damage rating (100=total damage to plant; 0=no damage to plant) ([5]; 15.625 g ai/ha): 20
- plant damage rating, Pigweed, Redroot [5, 12]: 80
- Pigweed, Redroot damage rating (100=total damage to plant; 0=no damage to plant) ([5]; 250 g ai/ha): 90
- Velvetleaf damage rating (100=total damage to plant; 0=no damage to plant) ([6]; 15.625 g ai/ha): 10
- plant damage rating, Velvetleaf [6, 12]: 10
- Velvetleaf damage rating (100=total damage to plant; 0=no damage to plant) ([6]; 250 g ai/ha): 60
- Foxtail, Giant damage rating [7, 13]: 60
- Foxtail, Giant damage rating (100=total damage to plant; 0=no damage to plant) [7, 14]: 70
- damage to plant, Foxtail, Giant (100=total damage to plant; 0=no damage to plant) [7, 15]: 70
- Barnyardgrass damage rating [8, 13]: 50
- Barnyardgrass damage rating (100=total damage to plant; 0=no damage to plant) [8, 14]: 70
- damage to plant, Barnyardgrass (100=total damage to plant; 0=no damage to plant) [8, 15]: 70
- Morningglory, Ivy-leaved damage rating [9, 13]: 0
- Morningglory, Ivy-leaved damage rating (100=total damage to plant; 0=no damage to plant) [9, 14]: 0
- damage to plant, Morningglory, Ivy-leaved (100=total damage to plant; 0=no damage to plant) [9, 15]: 0
- Corn damage rating [10, 13]: 10
- Corn damage rating (100=total damage to plant; 0=no damage to plant) [10, 14]: 20
- damage to plant, Corn (100=total damage to plant; 0=no damage to plant) [10, 15]: 60
- Velvetleaf damage rating [11, 13]: 10
- Velvetleaf damage rating (100=total damage to plant; 0=no damage to plant) [11, 14]: 10
- damage to plant, Velvetleaf (100=total damage to plant; 0=no damage to plant) [11, 15]: 30
